The target of assay [1] is T1, Bifunctional dihydrofolate reductase-thymidylate synthase (Toxoplasma gondii, UniProt Q07422).
T1 sequence (Q07422 whole entry): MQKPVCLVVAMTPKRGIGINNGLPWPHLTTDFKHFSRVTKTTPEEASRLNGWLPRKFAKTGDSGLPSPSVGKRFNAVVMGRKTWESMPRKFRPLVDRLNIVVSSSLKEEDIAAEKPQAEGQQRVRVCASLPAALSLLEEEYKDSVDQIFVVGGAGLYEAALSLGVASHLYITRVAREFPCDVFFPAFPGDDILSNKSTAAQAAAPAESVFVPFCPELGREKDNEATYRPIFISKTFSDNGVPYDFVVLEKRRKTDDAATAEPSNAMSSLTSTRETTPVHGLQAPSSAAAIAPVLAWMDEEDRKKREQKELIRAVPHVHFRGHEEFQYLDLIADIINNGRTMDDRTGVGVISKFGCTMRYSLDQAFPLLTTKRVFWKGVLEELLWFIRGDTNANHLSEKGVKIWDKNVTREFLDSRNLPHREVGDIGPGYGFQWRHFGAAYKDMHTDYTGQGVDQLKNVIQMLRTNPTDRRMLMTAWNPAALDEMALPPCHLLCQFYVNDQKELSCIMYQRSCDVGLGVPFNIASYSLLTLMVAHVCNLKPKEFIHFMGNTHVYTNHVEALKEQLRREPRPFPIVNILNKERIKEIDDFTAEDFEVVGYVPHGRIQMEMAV
The assay can be described thus: (§1) Inhibition of Toxoplasma gondii dihydrofolate reductase.

For assay [2], the target named is T2, Dihydrofolate reductase (Rattus norvegicus, UniProt Q920D2).
T2 sequence (Q920D2 whole entry): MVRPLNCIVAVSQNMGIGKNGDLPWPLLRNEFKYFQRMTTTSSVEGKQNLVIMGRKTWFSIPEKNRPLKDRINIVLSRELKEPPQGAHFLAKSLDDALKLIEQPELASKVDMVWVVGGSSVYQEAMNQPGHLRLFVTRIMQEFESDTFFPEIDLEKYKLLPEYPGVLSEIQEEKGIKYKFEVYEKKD
The assay can be described thus: (§2) Inhibition of rat liver dihydrofolate reductase.

The target of assay [3] is T3, Dihydrofolate reductase (Pneumocystis carinii, UniProt P16184).
T3 sequence (P16184 whole entry): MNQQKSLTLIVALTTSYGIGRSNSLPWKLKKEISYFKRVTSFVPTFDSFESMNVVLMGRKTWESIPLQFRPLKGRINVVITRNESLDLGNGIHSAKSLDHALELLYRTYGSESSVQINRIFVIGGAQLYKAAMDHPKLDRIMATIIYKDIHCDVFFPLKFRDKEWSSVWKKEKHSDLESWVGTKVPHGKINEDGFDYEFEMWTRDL
The assay can be described thus: (§3) Inhibition of Pneumocystis carinii dihydrofolate reductase.

The target of assay [4] is T3, Dihydrofolate reductase. The description is as §3. This is another data set of the same source.
Assay [5] has as its target T1, Bifunctional dihydrofolate reductase-thymidylate synthase. The description is as §1. This is another data set of the same source.
In assay [6] the target is T2, Dihydrofolate reductase. The assay is described as §2. This is another data set of the same source.

pIC50: −log10 of the molar value.

For the compound `Nc1nc(N)c2c(n1)CCC(CNc1cccc(Cl)c1)C2` (stereo not given), the negative logarithm of the IC50 (pIC50) is 7.11 in assay [1]; 6.89 in assay [2]; 6.03 in assay [3]; 6.03 in assay [4]; 7.11 in assay [5]; 6.89 in assay [6].
Turning to `COc1cc(CCC2CNc3nc(N)nc(N)c3C2)cc(OC)c1OC` (stereo not given), the pIC50 was 5.96 in assay [1]; 5.68 in assay [2]; 5.11 in assay [3]; 5.11 in assay [4]; 5.96 in assay [5]; 5.68 in assay [6].
`COc1ccc(CNc2cnc3nc(N)nc(N)c3c2)c(OC)c1OC`: the pIC50 in assay [1] is 6.46; in assay [2] it was 5.48; in assay [3] it was 4.85; in assay [4] it was 4.85; in assay [5], 6.46; in assay [6], 5.48.
For `Cc1c(CN(C)c2ccc(Cl)cc2)cnc2nc(N)nc(N)c12`, the pIC50 in assay [1] is 8.77; in assay [2], 6.77; in assay [3] it was 7.10; in assay [4], 7.10; in assay [5], 8.77; in assay [6], 6.77.
As to `COc1ccc(-c2ccccc2)cc1NNCc1cnc2nc(N)nc(N)c2c1C`, the pIC50 in assay [1] was 7.17; in assay [2] it was 6.36; in assay [3], 7.19; in assay [4], 7.19; in assay [5], 7.17; in assay [6], 6.36.

Values taken from ChEMBL document CHEMBL1145190, “CoMFA and CoMSIA analyses of Pneumocystis carinii dihydrofolate reductase, Toxoplasma gondii dihydrofolate reductase, and rat liver dihydrofolate reductase” (J Med Chem, 2005).
